Consider five molecules from ChEMBL document CHEMBL1136553, “Synthesis and biological evaluation of novel 1 beta-methylcarbapenems with isothiazoloethenyl side chains” (Bioorg Med Chem Lett, 2003).

≈ marks a conversion by molar mass, not a printed value.

A short description of data set [1]: Stability to porcine renal DHP-I. Conditions: pig. It is filed as ADME, Sus scrofa.
For data set [2], the system named is Escherichia coli. Nature of the data set: Antibacterial activity against Escherichia coli 078. It is filed as functional.
Data set [3] has as its system Escherichia coli. Nature of the data set: Antibacterial activity against Escherichia coli 1507E. The format is functional.
Another data set deals with Enterobacter cloacae. As to the kind of experiment: Antibacterial activity against Enterobacter cloacae 1321E. It is filed as functional.
A further data set concerns Klebsiella aerogenes. As to the kind of experiment: Antibacterial activity against Klebsiella aerogenes 1522E. It is filed as functional.
Data set [4] relates to Pseudomonas aeruginosa. Nature of the data set: Antibacterial activity against Pseudomonas aeruginosa 1592E. The format is functional.
Data set [5] concerns Pseudomonas aeruginosa. As to the kind of experiment: Antibacterial activity against Pseudomonas aeruginosa 1771M. The format is functional.
The test system of data set [6] is Pseudomonas aeruginosa. As to the kind of experiment: Antibacterial activity against Pseudomonas aeruginosa 9027. It is filed as functional.
Another data set deals with Salmonella typhimurium. As to the kind of experiment: Antibacterial activity against Salmonella Typhimurium. The format is functional, Salmonella enterica subsp. enterica serovar Typhimurium. As to conditions: Salmonella enterica.
The test system of data set [7] is Staphylococcus aureus. As to the kind of experiment: Antibacterial activity against Staphylococcus aureus 285. It is filed as functional.
Data set [8] relates to Staphylococcus aureus. Nature of the data set: Antibacterial activity against Staphylococcus aureus 503. It is filed as functional.
The next data set deals with Streptococcus pyogenes. Nature of the data set: Antibacterial activity against Streptococcus pyogenes 308A. The format is functional.
Data set [9] relates to Staphylococcus aureus. Nature of the data set: Antibacterial activity against Staphylococcus aureus SG 511. It is filed as functional.
Data set [10] concerns Mus musculus. As to the kind of experiment: In vivo therapeutic efficacy in systemic infections caused by Escherichia coli 078 in mice, at a single subcutaneous administration. The format is functional. As to conditions: sc, read-out: PD50.
The test system of data set [11] is Mus musculus. Nature of the data set: In vivo therapeutic efficacy in systemic infections caused by Pseudomonas aeruginosa 1771M in mice, at a single subcutaneous administration. As to conditions: sc, read-out: PD50. It is filed as functional.
For data set [12], the system named is Mus musculus. As to the kind of experiment: In vivo therapeutic efficacy in systemic infections caused by Streptococcus pyogenes 77A in mice, at a single subcutaneous administration. It is filed as functional. Conditions: sc, read-out: PD50.
Data set [13] deals with Mus musculus. As to the kind of experiment: In vivo therapeutic efficacy in systemic infections caused by Staphylococcus aureus Y-80-1953 in mice, at a single subcutaneous administration. The format is functional. Conditions: sc, read-out: PD50.

In the case of `C[C@@H](O)[C@H]1C(=O)N2C(C(=O)O)=C(S[C@@H]3CN[C@H](/C=C/c4ccsn4)C3)[C@H](C)[C@H]12`, the “Relative t1/2” value in data set [1] was found to be 1.42. Moreover, the minimal inhibitory concentration (MIC) was 0.049 µg/mL (≈ 0.116 µM) in the data set with Escherichia coli [2]; 0.049 µg/mL (≈ 0.116 µM) in the data set on Escherichia coli [3]; 0.025 µg/mL (≈ 0.0593 µM) with Enterobacter cloacae; 0.098 µg/mL (≈ 0.232 µM) against Klebsiella aerogenes; 1.56 µg/mL (≈ 3.71 µM) against Pseudomonas aeruginosa [4]; 0.391 µg/mL (≈ 0.928 µM) in the data set on Pseudomonas aeruginosa [5]. Also, the minimum inhibitory concentration (MIC) was determined as 1.56 µg/mL (≈ 3.71 µM) with Pseudomonas aeruginosa [6]; 0.049 µg/mL (≈ 0.116 µM) against Salmonella typhimurium; 0.025 µg/mL (≈ 0.0593 µM) against Staphylococcus aureus [7]; 0.013 µg/mL (≈ 0.0308 µM) against Staphylococcus aureus [8]; 7 ng/mL (≈ 0.0166 µM) in the data set on Streptococcus pyogenes; 0.025 µg/mL (≈ 0.0593 µM) against Staphylococcus aureus [9].
Take `C[C@@H](O)[C@H]1C(=O)N2C(C(=O)O)=C(S[C@@H]3CN[C@H](/C=C/c4ccns4)C3)[C@H](C)[C@H]12`: the “Relative t1/2” value in data set [1] is reported as 3.36. In addition, the minimum inhibitory concentration (MIC) in the data set with Escherichia coli [2] was 0.025 µg/mL (≈ 0.0593 µM); in the data set on Escherichia coli [3], 0.025 µg/mL (≈ 0.0593 µM); in the data set on Enterobacter cloacae it was 0.049 µg/mL (≈ 0.116 µM); with Klebsiella aerogenes, 0.049 µg/mL (≈ 0.116 µM); against Pseudomonas aeruginosa [4], 0.391 µg/mL (≈ 0.928 µM); with Pseudomonas aeruginosa [5], 0.195 µg/mL (≈ 0.463 µM). Also, the MIC in the data set with Pseudomonas aeruginosa [6] stood at 0.391 µg/mL (≈ 0.928 µM); with Salmonella typhimurium, 0.049 µg/mL (≈ 0.116 µM); against Staphylococcus aureus [7], 0.025 µg/mL (≈ 0.0593 µM); in the data set on Staphylococcus aureus [8], 0.013 µg/mL (≈ 0.0308 µM); in the data set on Streptococcus pyogenes it was 4 ng/mL (≈ 0.00949 µM); against Staphylococcus aureus [9], 0.013 µg/mL (≈ 0.0308 µM). Besides, the ED50 in the data set on Mus musculus [10] stood at 0.32 mg/kg; in the data set with Mus musculus [11], 6.17 mg/kg; in the data set on Mus musculus [12] it was 0.32 mg/kg; in the data set with Mus musculus [13], 1.27 mg/kg.
On to `C[C@@H](O)[C@H]1C(=O)N2C(C(=O)O)=C(S[C@@H]3CN[C@H](/C=C/c4ccno4)C3)[C@H](C)[C@H]12`, for which, in data set [1], the “Relative t1/2” value worked out at 1.95. Further, the minimum inhibitory concentration (MIC) against Escherichia coli [2] is 0.025 µg/mL (≈ 0.0617 µM); in the data set with Escherichia coli [3], 0.025 µg/mL (≈ 0.0617 µM); with Enterobacter cloacae, 0.025 µg/mL (≈ 0.0617 µM); against Klebsiella aerogenes, 0.049 µg/mL (≈ 0.121 µM); against Pseudomonas aeruginosa [4], 0.195 µg/mL (≈ 0.481 µM); against Pseudomonas aeruginosa [5] it was 0.098 µg/mL (≈ 0.242 µM). The MIC in the data set on Pseudomonas aeruginosa [6] turned out to be 0.195 µg/mL (≈ 0.481 µM); with Salmonella typhimurium, 0.049 µg/mL (≈ 0.121 µM); with Staphylococcus aureus [7] it was 0.049 µg/mL (≈ 0.121 µM); against Staphylococcus aureus [8] it was 0.013 µg/mL (≈ 0.0321 µM); in the data set with Streptococcus pyogenes, 4 ng/mL (≈ 0.00986 µM); in the data set with Staphylococcus aureus [9], 0.025 µg/mL (≈ 0.0617 µM).
Take `C[C@@H](O)[C@H]1C(=O)N2C(C(=O)O)=C(SCCNC=N)C[C@H]12.O` [IMIPENEM]: the “Relative t1/2” value in data set [1] is 0.19. The MIC is 0.098 µg/mL against Escherichia coli [2]; 0.195 µg/mL in the data set on Escherichia coli [3]; 0.195 µg/mL with Enterobacter cloacae; 0.391 µg/mL against Klebsiella aerogenes; 1.56 µg/mL against Pseudomonas aeruginosa [4]; 0.195 µg/mL against Pseudomonas aeruginosa [5]. In addition, the MIC against Pseudomonas aeruginosa [6] is 0.781 µg/mL; in the data set on Salmonella typhimurium, 0.781 µg/mL; against Staphylococcus aureus [7] it was 0.025 µg/mL; with Staphylococcus aureus [8], 0.013 µg/mL; against Streptococcus pyogenes, 7 ng/mL; against Staphylococcus aureus [9], 0.025 µg/mL.
As for `C[C@@H](O)[C@H]1C(=O)N2C(C(=O)O)=C(S[C@@H]3CN[C@H](C(=O)N(C)C)C3)[C@H](C)[C@H]12` [MEROPENEM], in [1], the “Relative t1/2” value is on record as 1. The MIC with Escherichia coli [2] stood at 0.025 µg/mL (≈ 0.0652 µM); in the data set on Escherichia coli [3], 0.025 µg/mL (≈ 0.0652 µM); in the data set on Enterobacter cloacae, 0.025 µg/mL (≈ 0.0652 µM); against Klebsiella aerogenes, 0.049 µg/mL (≈ 0.128 µM); in the data set on Pseudomonas aeruginosa [4], 0.195 µg/mL (≈ 0.509 µM); against Pseudomonas aeruginosa [5], 0.049 µg/mL (≈ 0.128 µM). Further, the MIC in the data set with Pseudomonas aeruginosa [6] is 0.195 µg/mL (≈ 0.509 µM); against Salmonella typhimurium it was 0.049 µg/mL (≈ 0.128 µM); against Staphylococcus aureus [7], 0.195 µg/mL (≈ 0.509 µM); against Staphylococcus aureus [8], 0.098 µg/mL (≈ 0.256 µM); with Streptococcus pyogenes, 13 ng/mL (≈ 0.0339 µM); in the data set with Staphylococcus aureus [9] it was 0.195 µg/mL (≈ 0.509 µM). Further, the ED50 with Mus musculus [10] amounted to 1.11 mg/kg; in the data set with Mus musculus [11], 5.43 mg/kg; in the data set with Mus musculus [12] it was 4.72 mg/kg; in the data set on Mus musculus [13], 4.49 mg/kg.
